In patent US6495578B1, “Sulfonamide derivatives having oxadiazole rings” (Shionogi & Co., Ltd., priority 1999, dated 2002):

Key:
[1] = biological target: T1, MMP-2 (Homo sapiens, UniProt P08253); test: Assay for inhibitory activities on MMP-2 (fluorogenic coumarin-labelled peptide substrate); assay type: biochemical; settings: MMP-2 purchased from Calbiochem-Novabiochem; substrate MOCAc-Pro-Leu-Gly-Leu-A2Pr(DNP)-Ala-Arg-NH2
T1 construct: purchased Calbiochem-Novabiochem International, Inc
T1 sequence (P08253 110-660): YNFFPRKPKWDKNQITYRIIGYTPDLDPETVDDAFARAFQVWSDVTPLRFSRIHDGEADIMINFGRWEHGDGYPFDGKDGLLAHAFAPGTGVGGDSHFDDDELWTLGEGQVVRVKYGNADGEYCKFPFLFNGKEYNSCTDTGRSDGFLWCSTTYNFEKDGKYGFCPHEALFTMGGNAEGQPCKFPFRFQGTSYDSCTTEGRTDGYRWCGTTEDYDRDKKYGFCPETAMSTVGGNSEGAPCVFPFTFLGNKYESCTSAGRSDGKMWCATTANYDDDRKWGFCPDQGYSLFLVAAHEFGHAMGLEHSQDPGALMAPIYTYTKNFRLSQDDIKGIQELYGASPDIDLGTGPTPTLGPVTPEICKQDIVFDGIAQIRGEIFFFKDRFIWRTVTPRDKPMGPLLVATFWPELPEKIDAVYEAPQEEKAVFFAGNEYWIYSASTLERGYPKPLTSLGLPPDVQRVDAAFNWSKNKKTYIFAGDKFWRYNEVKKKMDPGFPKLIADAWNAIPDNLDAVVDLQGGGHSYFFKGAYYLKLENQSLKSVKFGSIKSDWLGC
Method: MMP-2 was purchased from Calbiochem-Novabiochem International, Inc.
The enzymatic activity on MMP-2 was analyzed by the method described in “C. Graham Knight, Frances Willenbrock and Gillian Murphy: A novel coumarin-labelled peptide for sensitive continuous assays of the matrix metalloproteinases: FEBS LETT., 296, (1992), 263-266”. The substrate: MOCAc-Pro-Leu-Gly-Leu-A2Pr(DNP)-Ala-Arg-NH2 was purchased from Peptide Institute, Inc., Osaka, Japan.
The measurement of the inhibitory activities (IC50) was carried out by the following four methods;
A) Reaction with substrate, enzyme (MMPs) and inhibitor
B) Reaction with substrate and inhibitor, without enzyme
C) Reaction with substrate and enzyme (MMPs), without inhibitor
D) Reaction with substrate only
IC50 values were calculated by using the following formula and each fluorescence values of above four methods (A to D).
IC50 means the concentration required to inhibit 50% of the enzyme activity.

IC50 [1]	melting point	Structure (SMILES)
4.62 nM	208 to 209 °C	Cc1ccc(-c2nc(-c3ccc(S(=O)(=O)N[C@@H](C(=O)O)C(C)C)cc3)no2)cc1 [Compound A-1]
124 nM		Cc1ccc(-c2nc(-c3ccc(S(=O)(=O)N[C@@H](CC(C)C)C(=O)O)cc3)no2)cc1 [Compound A-67]
20.2 nM		O=C(O)[C@H](Cc1ccccc1)NS(=O)(=O)c1ccc(-c2noc(-c3ccc4c(c3)OCO4)n2)cc1 [Compound A-37]
3.21 nM		CC(=O)c1ccc(-c2nc(-c3ccc(S(=O)(=O)N[C@H](C)C(=O)O)cc3)no2)cc1 [Compound A-51]
12.6 nM		C[C@@H](NS(=O)(=O)c1ccc(-c2noc(-c3ccc([N+](=O)[O-])cc3)n2)cc1)C(=O)O [Compound A-50]
80.7 nM		O=C(O)[C@H](Cc1ccccc1)NS(=O)(=O)c1ccc(-c2noc(-c3ccc(Cl)c(Cl)c3)n2)cc1 [Compound A-39]
1.39 nM		CCc1ccc(-c2nc(-c3ccc(S(=O)(=O)N[C@H](Cc4c[nH]c5ccccc45)C(=O)O)cc3)no2)cc1 [Compound A-64]
614 nM		C[C@@H](NS(=O)(=O)c1ccc(-c2noc(-c3ccccn3)n2)s1)C(=O)O [Compound B-11]
29 nM		O=C(O)[C@@H](Cc1c[nH]c2ccccc12)NS(=O)(=O)c1ccc(-c2noc(-c3ccc(F)cc3)n2)s1 [Compound B-12]
0.883 nM		CCCc1ccc(-c2nc(-c3ccc(S(=O)(=O)NC(C(=O)O)C(C)C)cc3)no2)cc1 (stereo not shown) [Compound A-20]
26.4 nM		CC(C)[C@@H](NS(=O)(=O)c1ccc(-c2noc(-c3ccccc3)n2)cc1)C(=O)O [Compound A-16]
26.5 nM		O=C(O)[C@@H](Cc1ccccc1)NS(=O)(=O)c1ccc(-c2noc(-c3ccc(F)cc3)n2)cc1 [Compound A-7]
2.9 nM		CCc1ccc(-c2nc(-c3ccc(S(=O)(=O)N[C@H](C)C(=O)O)s3)no2)cc1 [Compound B-8]
6.72 nM		CC(C)[C@@H](NS(=O)(=O)c1ccc(-c2noc(-c3ccc(Cl)s3)n2)cc1)C(=O)O [Compound A-26]
37.6 nM		CC(C)C[C@@H](NS(=O)(=O)c1ccc(-c2noc(-c3ccc(Cl)cc3)n2)cc1)C(=O)O [Compound A-66]
1.17 nM		CCCc1ccc(-c2nc(-c3ccc(S(=O)(=O)N[C@H](C)C(=O)O)cc3)no2)cc1 [Compound A-48]
126 nM		CCCc1ccc(-c2nc(-c3ccc(S(=O)(=O)N[C@@H](C)C(=O)O)cc3)no2)cc1 [Compound A-49]
40.7 nM		CC(C)[C@@H](NS(=O)(=O)c1ccc(-c2noc(-c3cccs3)n2)cc1)C(=O)O [Compound A-22]
4.08 nM		CCc1ccc(-c2nc(-c3ccc(S(=O)(=O)N[C@H](Cc4c[nH]c5ccccc45)C(=O)O)s3)no2)cc1 [Compound B-13]
1.66 nM		CCCc1ccc(-c2nc(-c3ccc(S(=O)(=O)N[C@H](Cc4c[nH]c5ccccc45)C(=O)O)cc3)no2)cc1 [Compound A-65]
196 nM		O=C(O)CNS(=O)(=O)c1ccc(-c2noc(-c3cccs3)n2)cc1 [Compound A-62]
